System: P. acnes
Test: Agar dilution method, growth of P. acnes and MIC, combinations with a fatty acid spike
Type: cell-based, Propionibacterium acnes
Parameters: key to Growth Index Plate 1 / Growth Index Plate 2 / Growth Index Plate 3 / Growth Index Avg: +++: confluent growth (comparable to control); ++: less confluent growth; +: marked reduction in growth to multiple tiny, single colonies; −: no growth present
Procedure: Several compounds including fatty acids such as DGLA, 15-OHEPA, and 15-HETrE were tested to determine their capacity to inhibit the growth of P. acnes. In an exemplary method, an agar dilution method was used to determine the minimum inhibitory concentration (MIC) of each tested compound. Briefly, the agar dilution method involved preparing a series of concentrations of each compound (e.g., nicotinamide, benzoyl peroxide, adapalene, metronidazole, DGLA, 15-OHEPA, and 15-HETrE) in a Reinforced Clostridial Agar (RCA) media that facilitates growth of P. acnes under anaerobic conditions. An inoculum of P. acnes was prepared by incubation of P. acnes for approximately seven days at 35-37° C. to achieve a ≧1.0 OD600 inoculum of P. acnes in RCM broth. A portion of this inoculum was then added to the surface of each plate as a 10 μL spot and incubated at 35-37° C. for 72 hours or more. Growth of P. acnes was then observed and compared to control plates in which no compound has been added, and positive inhibition plates prepared with erythromycin. […] The growth of P. acnes in the presence of nicotinamide, benzoyl peroxide, adapalene, metronidazole, DGLA, 15-OHEPA, and 15-HETrE was determined with varying concentrations of the compound (see, Table 2). Next, the MIC was determined as the concentration at which a marked reduction (+) occurs in the appearance of growth on the test plate (as per Clinical and Laboratory Standards Institute M11-A7).
The compounds tested singly in Example 1 were tested in combination with one another to determine the capacity of the combination to inhibit the growth of P. acnes. In an exemplary method, the MIC was determined for each of the combination as described in Example 1. Briefly, test combinations included DGLA with nicotinamide, benzoyl peroxide, adapalene, or metronidazole; 15-HETrE with nicotinamide, benzoyl peroxide, adapalene, or metronidazole; and 15-OHEPA with nicotinamide, benzoyl peroxide, adapalene, or metronidazole. The tables below show the growth of P. acnes in the presence of 0.4 or 1.0 mg/mL DGLA with varying concentrations of nicotinamide, benzoyl peroxide, adapalene, or metronidazole (Table 3); the growth of P. acnes in the presence of 0.01 or 0.05 mg/mL 15-HETrE with varying concentrations of nicotinamide, benzoyl peroxide, adapalene, or metronidazole (Table 5); and the growth of P. acnes in the presence of 0.5 or 0.1 mg/mL 15-OHEPA with varying concentrations of nicotinamide, benzoyl peroxide, adapalene, or metronidazole (Table 7).

[1] = compound at 1 mg/mL + 0.01 mg/mL 15-HETrE
[2] = compound at 1 mg/mL + 0.05 mg/mL 15-HETrE
[3] = compound at 1 mg/mL + 0.05 mg/mL 15-OHEPA
[4] = compound at 1 mg/mL + 0.1 mg/mL 15-OHEPA
[5] = compound at 1 mg/mL + 0.4 mg/mL dGLA
[6] = compound at 1 mg/mL + 1.0 mg/mL dGLA
[7] = compound at 5 mg/mL + 0.01 mg/mL 15-HETrE
[8] = compound at 5 mg/mL + 0.05 mg/mL 15-HETrE
[9] = compound at 5 mg/mL + 0.05 mg/mL 15-OHEPA
[10] = compound at 5 mg/mL + 0.1 mg/mL 15-OHEPA
[11] = compound at 5 mg/mL + 0.4 mg/mL dGLA
[12] = compound at 5 mg/mL + 1.0 mg/mL dGLA
[13] = compound at 10 mg/mL + 0.01 mg/mL 15-HETrE
[14] = compound at 10 mg/mL + 0.05 mg/mL 15-HETrE
[15] = compound at 10 mg/mL + 0.05 mg/mL 15-OHEPA
[16] = compound at 10 mg/mL + 0.1 mg/mL 15-OHEPA
[17] = compound at 10 mg/mL + 0.4 mg/mL dGLA
[18] = compound at 10 mg/mL + 1.0 mg/mL dGLA
[19] = compound at 15 mg/mL + 0.01 mg/mL 15-HETrE
[20] = compound at 15 mg/mL + 0.05 mg/mL 15-HETrE
[21] = compound at 15 mg/mL + 0.05 mg/mL 15-OHEPA
[22] = compound at 15 mg/mL + 0.1 mg/mL 15-OHEPA
[23] = compound at 15 mg/mL + 0.4 mg/mL dGLA
[24] = compound at 15 mg/mL + 1.0 mg/mL dGLA
[25] = compound at 25 mg/mL + 0.01 mg/mL 15-HETrE
[26] = compound at 25 mg/mL + 0.05 mg/mL 15-HETrE
[27] = compound at 25 mg/mL + 0.05 mg/mL 15-OHEPA
[28] = compound at 25 mg/mL + 0.1 mg/mL 15-OHEPA
[29] = compound at 25 mg/mL + 0.4 mg/mL dGLA
[30] = compound at 25 mg/mL + 1.0 mg/mL dGLA

NC(=O)c1cccnc1 [Nicotinamide]
++: Growth Index Avg [13] | Growth Index Plate 1 [13] | Growth Index Plate 2 [13] | Growth Index Plate 3 [13] | Growth Index Avg [18] | Growth Index Plate 2 [18] | Growth Index Plate 3 [18]
+++: Growth Index Avg [1] | Growth Index Plate 1 [1] | Growth Index Plate 2 [1] | Growth Index Plate 3 [1] | Growth Index Avg [3] | Growth Index Plate 1 [3] | Growth Index Plate 2 [3] | Growth Index Plate 3 [3] | Growth Index Avg [5] | Growth Index Plate 1 [5] | Growth Index Plate 2 [5] | Growth Index Plate 3 [5] | Growth Index Avg [6] | Growth Index Plate 1 [6] | Growth Index Plate 2 [6] | Growth Index Plate 3 [6] | Growth Index Avg [7] | Growth Index Plate 1 [7] | Growth Index Plate 2 [7] | Growth Index Plate 3 [7] | Growth Index Avg [9] | Growth Index Plate 1 [9] | Growth Index Plate 2 [9] | Growth Index Plate 3 [9] | Growth Index Avg [11] | Growth Index Plate 1 [11] | Growth Index Plate 2 [11] | Growth Index Plate 3 [11] | Growth Index Avg [12] | Growth Index Plate 1 [12] | Growth Index Plate 2 [12] | Growth Index Plate 3 [12] | Growth Index Avg [15] | Growth Index Plate 1 [15] | Growth Index Plate 2 [15] | Growth Index Plate 3 [15] | Growth Index Avg [17] | Growth Index Plate 1 [17] | Growth Index Plate 2 [17] | Growth Index Plate 3 [17]
−: Growth Index Avg [2] | Growth Index Plate 1 [2] | Growth Index Plate 2 [2] | Growth Index Plate 3 [2] | Growth Index Avg [4] | Growth Index Plate 1 [4] | Growth Index Plate 2 [4] | Growth Index Plate 3 [4] | Growth Index Avg [8] | Growth Index Plate 1 [8] | Growth Index Plate 2 [8] | Growth Index Plate 3 [8] | Growth Index Avg [10] | Growth Index Plate 1 [10] | Growth Index Plate 2 [10] | Growth Index Plate 3 [10] | Growth Index Avg [14] | Growth Index Plate 1 [14] | Growth Index Plate 2 [14] | Growth Index Plate 3 [14] | Growth Index Avg [16] | Growth Index Plate 1 [16] | Growth Index Plate 2 [16] | Growth Index Plate 3 [16] | Growth Index Avg [19] | Growth Index Plate 1 [19] | Growth Index Plate 2 [19] | Growth Index Plate 3 [19] | Growth Index Avg [20] | Growth Index Plate 1 [20] | Growth Index Plate 2 [20] | Growth Index Plate 3 [20] | Growth Index Avg [21] | Growth Index Plate 1 [21] | Growth Index Plate 2 [21] | Growth Index Plate 3 [21] | Growth Index Avg [22] | Growth Index Plate 1 [22] | Growth Index Plate 2 [22] | Growth Index Plate 3 [22] | Growth Index Avg [24] | Growth Index Plate 1 [24] | Growth Index Plate 2 [24] | Growth Index Plate 3 [24] | Growth Index Avg [25] | Growth Index Plate 1 [25] | Growth Index Plate 2 [25] | Growth Index Plate 3 [25] | Growth Index Avg [26] | Growth Index Plate 1 [26] | Growth Index Plate 2 [26] | Growth Index Plate 3 [26] | Growth Index Avg [27] | Growth Index Plate 1 [27] | Growth Index Plate 2 [27] | Growth Index Plate 3 [27] | Growth Index Avg [28] | Growth Index Plate 1 [28] | Growth Index Plate 2 [28] | Growth Index Plate 3 [28] | Growth Index Avg [29] | Growth Index Plate 1 [29] | Growth Index Plate 2 [29] | Growth Index Plate 3 [29] | Growth Index Avg [30] | Growth Index Plate 1 [30] | Growth Index Plate 2 [30] | Growth Index Plate 3 [30]
+: Growth Index Plate 1 [18] | Growth Index Avg [23] | Growth Index Plate 1 [23] | Growth Index Plate 2 [23] | Growth Index Plate 3 [23]
did not reduce the growth: growth of P. Acnes in combination with 15-HETrE, compared with 15-HETrE used alone (in combination with 15-HETrE) | growth of P. Acnes in combination with 15-OHEPA, compared with 15 OHEPA used alone (in combination with 15-OHEPA) | growth of P. Acnes in combination with DGLA, compared with DGLA used alone (in combination with DGLA)

— patent US20130274338A1, “PHARMACEUTICAL COMPOSITIONS COMPRISING DGLA, 15-OHEPA, AND/OR 15-HETRE AND METHODS OF REDUCING SEBUM PRODUCTION USING SAME” (priority 2012, published 2013)
